In one assay the test system is P. falciparum. Nature of the assay: P. falciparum growth in culture ([3H]-hypoxanthine incorporation). It counts as cell-based. The settings on record: read-out: IC50 vs. P. falc. As for the experimental part: To determine the effectiveness of the compounds of the present invention against the erythrocytic stage of the malarial parasite, P. falciparum was grown in human erythrocyte suspensions and maintained at 37° C. in candle jars according to the method of Trager and Jensen (15,16). Parasites were stage-synchronized by incubating mainly ring-stage infected erythrocytes in 5% sorbitol for 10 minutes at room temperature (17). Cultures undergo one growth cycle (2 days) before use. Strains used include the chloroquine sensitive strains D10 and HB3, and the chloroquine resistant isolates Dd2 and FCR.
Parasite growth was determined by measuring incorporation of [^3H]-hypoxanthine into the nucleic acids of the parasite (18). Effects of the compounds of the present invention on parasite growth was determined by measuring the reduction in incorporation of radiolabel as compared to controls. Briefly, assays are performed in 96-well microtiter plates. After 24 h of candle jar incubation at 37° C., [^3H]-hypoxanthine is added to each well. After 18 h the plates are harvested onto glass fiber filter 96 well plates using a cell harvester, dried, and the amount of radioactivity is determined. Drug IC50 values (molar concentration which decreases [^3H]-hypoxanthine incorporation by 50% as compared to drug-free controls) are calculated by extrapolation of the log dose-response curves using curve fitting software (Origin, Microcal Software, Northampton, Mass.).
Parasites were grown in A^+ human erythrocyte suspensions using RPMI-1640 (GIBCO, Gaithersburg, Md.) medium supplemented by 25 mM HEPES (pH 7.35), 0.2% NaHCO3 (23 mM), 0.2% (D)-Glucose and 10% human A^+ plasma and maintained at 37° C. in candle jars according to the method of Trager and Jensen (20,21) Parasites are stage synchronized by incubating mainly ring-stage infected erythrocytes in 5% sorbitol for 10 minutes at room temperature (22). Cultures undergo one growth cycle (2 days) before use. Strains used include the chloroquine sensitive strains D10 and HB3, and the chloroquine resistant isolates Dd2 and FCR.
Parasite growth was determined by measuring incorporation of [^3H]-hypoxanthine into the nucleic acids of the parasite as previously described (23). Effects of the compounds of the present invention on parasite growth was determined by measuring the reduction in incorporation of radiolabel as compared to controls. Briefly, assays were performed in 96-well microtiter plates, each well containing 200 μl of synchronized ring-stage infected erythrocytes in complete media and 50 μl of drug dilution or solvent. The final hematocrit was 1.5% and percent parasitemias range from 2-8%. After 24 h of candle jar incubation at 37° C., 2.5 μCi of [^3H]-hypoxanthine (17 Ci/mmol, Amersham, Arlington Heights, Ill.) in RPMI-1640 media supplemented with 25 mM HEPES (pH 7.35), 0.2% NaHCO3 (23 mM), 0.2% (D)-Glucose is added to each well. After 18 h the plates were harvested onto glass fiber filter 96 well plates using a cell harvester, dried, and 25 μl scintillation acid added per well. The, amount of radioactivity was determined. Drug IC50 values (molar concentration which decreases [^3H]-hypoxanthine incorporation by 50% as compared to drug-free controls) are calculated by extrapolation of the log dose-response curves using curve fitting software (Origin, Microcal Software, Northampton, Mass.). The effects on parasite grown by aromatic guanyllhydrazones, bisguanylhydrazones, naphthothiazolium salts, and other compounds of the instant invention, together with data on hemozoin depolymerization from Example 5, are shown in tables 1 through 4, respectively.

A further assay concerns synthetic hemozoin. Nature of the assay: Depolymerization of synthetic hemozoin in vitro. It counts as biochemical. Conditions: 50 mM test compound, acetate buffer pH 5.0, 37° C., 16 hours. As for the experimental part: This activity is evaluated by incubating a suspension of monomer-free hemozoin at 37° C. with compounds of the present invention for 16 hours. After incubation, hemozoin is separated from any solubilized heme and soluble heme oligomers, the oligomers depolymerized, and the heme present in the supernatants determined.
The synthesis of synthetic hemozoin is carried out as previously described (26). In brief, 60 μmoles of hematin was dissolved in 8 ml of 0.1N NaOH. Following dissolution 49 mmoles of glacial acetic acid was added and the suspension heated at 70° C. overnight. The precipitate was then washed extensively with LPS-free water. In order to remove unreacted heme the precipitate was extracted with 0.1M sodium bicarbonate (pH 9.1) for three hours. The remaining insoluble material was recovered by centrifugation, resuspended in EtOH and transferred to sterile Eppendorf tubes. The material was washed several times in EtOH and finally resuspended in LPS-free double-distilled H2O. The hemozoin preparation was then tested for endotoxin by using the Limulus Amebocyte Lysate test following manufacturer's instructions. Although the preparation of LPS-free hemozoin from native or synthetic sources is not critical for in vitro depolymerization studies, it is critical for studies involving monocytes and animals (see Examples below). Small amounts of LPS can evoke a considerable cytokine response and interfere with interpretation of results. The amount of heme in the final product was determined from a small aliquot using the pyridine-hemochrome method as previously described (26). The preparations are stored at 4° C. until used.
A suspension of monomer-free hemozoin (equivalent to 2 mM free heme) as prepared above was incubated at 37° C. with […] test compound in total volume of 500 μl in acetate buffer (pH: 5.0) in siliconized Eppendorf tubes (Brinkmann Instruments, Westbury, N.Y.) for 16 hours. A control sample containing distilled H2O instead of hemozoin was included. The samples were centrifuged at 14,000 rpm (Eppendorf centrifuge model 5415C, Brinkmann Instruments, Westbury, N.Y.) for 20 min; then 225 μl supernatant was diluted in 175 μl acetate buffer (pH 5.0). Another 225 μl was added to 175 μl 0.5 M NaOH to dissolve possible oligomeric depolymerization products to monomers. Half of the pellet was washed twice for 2.5 hr in 200 μl 2.5% SDS (v/v) in dH2O, the other half was washed twice in 200 μl HCO3^− buffer (pH: 9.1). Both sample supernatants and SDS and HCO3^− buffer supernatants were centrifuged 14,000 rpm for 20 min. and supernatants were added to 10 μl sodium dithionite (200 mg/ml dH2O) to reduce the heme monomers in solution to Fe^2+. All samples were measured in triplicate at 540 nm (Model UV1601 spectrophotometer, Shimradzu Corp, Columbia, Md.). The OD obtained from the blind sample was subtracted from the OD of the hemozoin containing sample.

Setting [1] is: Table 1, aryl monoguanylhydrazones, growth in culture, [3H]-hypoxanthine incorporation.
Where [2] appears, read: Table 2, aromatic bisguanylhydrazones, growth in culture, [3H]-hypoxanthine incorporation.

The structures appear in SMILES notation. Where a name gives a salt, the structure may show the parent alone. Read-outs that look alike come from different tables or passages of the source.

As to `CC(=NNC(=N)N)c1cccc(-c2cc(C)n(C)c(=N)n2)c1` [2-[[3-(3,4-dimethyl-2(3H)-imino-6-pyrimidinyl)phenyl]ethylidene]hydrazinecarboximidamide hydrochloride hydroiodide], the IC50 in the assay on P. falciparum (setting [1]) was determined as 1050 nM.
Regarding `COc1c(C=NNC(=N)N)cc(C)cc1C=NNC(=N)N.Cl.Cl` [2,2′-[(2-methoxy-5-methyl-1,3-phenylene)dimethylidyne]bis(hydrazinecarboximidamide) dihydrochloride], in the assay on P. falciparum (setting [2]), the IC50 was 2300 nM. For the same compound, the “% depol. hemoz.” value in the assay with synthetic hemozoin (Table 2) came to 2.0%.
`CC(=NNC(=N)N)c1cccc(C(C)=NNC(=N)N)c1.Cl.Cl` [2,2′-(1,3-phenylenediethylidyne)bis(hydrazinecarboximidamide) dihydrochloride]: the IC50 in the assay with P. falciparum (setting [2]) worked out at 830 nM. Further, the “% depol. hemoz.” value in the assay with synthetic hemozoin (Table 2) is 0.4%.
In the case of `Cc1c(O)c2ccccc2c2c1sc(NCCCN(CCO)CCO)[n+]2C` [2-[[3-[bis(2-hydroxyethyl)amino]propyl]imino]-1,2-dihydro-1,4-dimethylnaphtho[1,2-d]thiazol-5-ol dihydrochloride], in the assay on P. falciparum (Plasmodium falciparum), the IC50 was 200 nM. Besides, the “% depol. hemoz.” value with synthetic hemozoin (Table 3) was found to be 2.9%.
With `CC(=NNC(=N)N)c1cc(C(C)=NNC(=N)N)c(O)cc1O.Cl.Cl` [2,2′-[(4,6-dihydroxy-1,3-phenylene)diethylidyne]bis(hydrazinecarboximidamide) dihydrochloride], the IC50 in the assay on P. falciparum (setting [2]) amounted to 7000 nM. In addition, in the assay on synthetic hemozoin (Table 2), the “% depol. hemoz.” value came to 2.6%.
For `CC(=NNC(=N)N)c1cc(O)cc(C(C)=NNC(=N)N)c1.Cl.Cl` [2,2′-[(5-hydroxy-1,3-phenylene)diethylidyne]bis(hydrazinecarboximidamide) dihydrochloride], in that order: 1400 nM and 0.0%.
On the same counts, the results for `CC(=NNC(=N)N)c1ccc(O)c(C(C)=NNC(=N)N)c1.Cl.Cl` [2,2′-[(4-hydroxy-1,3-phenylene)diethylidyne]bis(hydrazinecarboximidamide) dihydrochloride] are 2600 nM and 0.6%.
For `Cl.Cl.N=C(N)NN=Cc1ccc(O)c(C=NNC(=N)N)c1` [2,2′-[(4-hydroxy-1,3-phenylene)dimethylidyne]bis(hydrazinecarboximidamide) dihydrochloride], in that order: 5500 nM and 2.2%.
In the case of `CC(=NNC(=N)N)c1cncc(C(C)=NNC(=N)N)c1.Cl.Cl` [2,2′-(3,5-pyridinediyldiethylidyne)bis(hydrazinecarboximidamide) dihydrochloride], the IC50 with P. falciparum (setting [2]) turned out to be 400 nM. Also, the “% depol. hemoz.” value with synthetic hemozoin (Table 2) amounted to 0.3%.
`Cl.N=C(N)NN=Cc1c(N)oc2ccc(Cl)cc2c1=O` [2-amino-3-[(aminoiminomethyl)hydrazono]methyl]-6-chloro-4H-1-benzopyran-4-one hydrochloride]: in the assay with P. falciparum (setting [1]), the IC50 worked out at 3250 nM. Besides, the “% depol. hemoz.” value with synthetic hemozoin (Table 1) was determined as 0.6%.
As for `CC(CCC1=C(CCC(C)=NNC(=N)N)C(=O)c2ccccc2C1=O)=NNC(=N)N.Cl.Cl` [2,2′-[(1,4-dihydro-1,4-dioxo-2,3-naphthalenediyl)bis(1-methyl-3-propanyl-1-ylidene)]bis(hydrazinecarboximidamide)dihydrochloride], the IC50 in the assay with P. falciparum (Table 4, in culture, [3H]-hypoxanthine incorporation) was 800 nM. Also, the “% depol. hemoz.” value in the assay on synthetic hemozoin (Table 4) came out at 0.3%.
Regarding `Cc1c(O)c2ccccc2c2sc(NCCCN3CCOCC3)nc12` [4-methyl-2-[[3-(4-morpholino)propyl]amino]naphtho[1,2-d]thiazol-5-ol dihydrochloride], the IC50 in the assay on P. falciparum (Table 3, naphthothiazolium salts, in culture, [3H]-hypoxanthine incorporation) was 600 nM.
`CC(=NNC(=N)N)c1cccc(C(C)=NNC(=N)N)n1.Cl.Cl` [2,2′-(2,6-pyridinediyldiethylidyne)bis(hydrazinecarboximidamide) dihydrochloride]: in the assay on P. falciparum (setting [2]), the IC50 turned out to be 2000 nM. Further, in the assay with synthetic hemozoin (Table 2), the “% depol. hemoz.” value is recorded as 0.0%.
On the same counts, the results for `Cl.Cl.N=C(N)NN=Cc1cccc(C=NNC(=N)N)c1` [2,2′-(1,3-phenylenedimethylidyne)bis(hydrazinecarboximidamide) dihydrochloride] are 1000 nM and 0.1%.
For the compound `Cl.N=C(N)NN=Cc1c(O)ccc2ccccc12` [2-[(2-hydroxy-1-naphthyl)methylidene]hydrazinecarboximidamide monohydrochloride], in the assay with P. falciparum (Plasmodium falciparum), the IC50 stood at 1800 nM. Also, the “% depol. hemoz.” value in the assay on synthetic hemozoin (Table 1) turned out to be 4.3%.
Turning to `CC(=NNC(=N)N)c1cc(N)cc(C(C)=NNC(=N)N)c1.Cl.Cl` [2,2′-[(5-amino-1,3-phenylene)diethylidyne]bis(hydrazinecarboximidamide) dihydrochloride], the IC50 in the assay with P. falciparum (setting [2]) turned out to be 4000 nM. Further, the “% depol. hemoz.” value in the assay with synthetic hemozoin (Table 2) amounted to 0.3%.
Regarding `C/C(=N\NC(=N)N)c1cccc(NC(=O)CCCC(=O)Nc2cccc(/C(C)=N/NC(=N)N)c2)c1` [dihydrochloride], in the assay on P. falciparum (Plasmodium falciparum), the IC50 was 800 nM. Besides, the “% depol. hemoz.” value in the assay on synthetic hemozoin (Table 4) was 0%.
In the case of `CC(=NNC(=N)N)c1cccc(C(C)=NNC(=N)N)c1N` [2,2′-[(2-amino-1,3-phenylene)diethylidyne]bis(hydrazinecarboximidamide) dihydrochloride], in the assay with P. falciparum (setting [2]), the IC50 came out at 6300 nM.
For `CC(=NNC(=N)N)c1ccc(-c2cc(C)n(C)c(=N)n2)cc1` [2-[[4-(3,4-dimethyl-2(3H)-imino-6-pyrimidinyl)phenyl]ethylidene]hydrazinecarboximidamide hydrochloride hydroiodide], the concentration for half-maximal inhibition (IC50) with P. falciparum (setting [1]) amounted to 600 nM.

Broadly, the IC50 is the concentration needed to halve the response being measured.

These data come from US6689777B2 (Kenneth S. Warren Institute, priority 2001, dated 2004).
